Experimental findings from patent US6492416B1, “4,5-diaryl-3(2H)-furanone derivatives as cyclooxygenase-2 inhibitors” (Pacific Corporation, priority 1999, dated 2002) are described below.

≈ marks a conversion by molar mass, not a printed value.

One data set addresses T1, COX-2 (Mus musculus, UniProt Q05769).
T1 sequence (Q05769 18-604): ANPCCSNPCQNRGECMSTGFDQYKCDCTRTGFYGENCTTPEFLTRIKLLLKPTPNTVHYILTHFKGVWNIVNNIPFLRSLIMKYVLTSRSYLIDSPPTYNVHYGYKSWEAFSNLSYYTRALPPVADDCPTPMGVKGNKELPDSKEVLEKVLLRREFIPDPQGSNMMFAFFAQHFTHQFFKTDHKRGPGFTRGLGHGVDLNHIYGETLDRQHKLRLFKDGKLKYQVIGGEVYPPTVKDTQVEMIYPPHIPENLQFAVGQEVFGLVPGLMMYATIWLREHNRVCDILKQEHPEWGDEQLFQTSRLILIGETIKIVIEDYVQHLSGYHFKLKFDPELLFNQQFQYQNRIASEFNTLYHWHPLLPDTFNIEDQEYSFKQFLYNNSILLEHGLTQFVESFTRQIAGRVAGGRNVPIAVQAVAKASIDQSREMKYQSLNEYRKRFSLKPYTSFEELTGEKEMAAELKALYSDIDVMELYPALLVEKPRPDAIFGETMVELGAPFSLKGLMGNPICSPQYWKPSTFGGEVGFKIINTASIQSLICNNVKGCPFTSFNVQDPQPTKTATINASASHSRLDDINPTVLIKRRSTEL
As to the kind of experiment: Evaluation of COX-2 activity: PGE2 formation in aspirin-treated, LPS-stimulated mouse peritoneal macrophages. Format: cell-based. An outline of the steps: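 C57BL/6 peritoneal macrophages treated with 500 μM aspirin to block COX-1, adhered, then stimulated with 10 μg/ml LPS for 16 h at 37 °C to induce COX-2.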

Data set [1] deals with male Sprague-Dawley (SD) rats. As to the kind of experiment: Carrageenan-induced foot edema in rats (CFE). It counts as in vivo. Particulars: oral dose 3 mg/kg body weight, rat, paw volume 3 hours after Carrageenan. The protocol: An appropriate amount of a compound of this invention suspended in 1% methylcellulose (MC) solution was administered to male Sprague-Dawley (SD) rats weighing 150˜200 g by oral gavage. The volume of the administered vehicle for a compound of this invention was controlled to be smaller than 10 ml/kg body weight of the animal. One hour later, 0.1 ml of 1% Carrageenan saline solution was directly injected into the right paw of the rats to induce edema in the paw. The paw volumes at 0 hour and at 3 hours after the injection of Carrageenan were measured by using a displacement plethysmometer (Ugo Basile, Italy). The paw volumes were used to calculate % inhibition of CFE by an amount of a compound of this invention according to the following equation.
% Inhibition of CFE=(1−Δtreated/Δcontrol)×100
wherein Δtreated=[paw volume at three hours after the Carrageenan injection−paw volume right after Carrageenan injection] for a drug-administered rat, and Δcontrol=[paw volume at three hours after the Carrageenan injection−paw volume right after Carrageenan injection] for a rat without drug administration.
In order to determine the inhibitory activity of a compound of this invention at a dose, usually 5 to 8 animals were used both for drug-treated group and for control group.
In general terms: The carrageenan paw model is a standard test of acute inflammation.

The subject of a further data set is male SD rats. As to the kind of experiment: Antiinflammatory potency by adjuvant arthritis (AA). Format: in vivo. The note with it: daily oral dose day 14 to day 22, rat. How it is done: Arthritis was induced in male SD rats weighing 180-200 g by subcutaneous injection of Mycobacterium butyricum mixed in 0.1 ml of incomplete Freund's adjuvanat into the base of the tail. The foot volumes were measured using a displacement plethysomometer 14 days after the injection of the adjuvant. Animals with paw volumes greater than the normal paw volumes (without the adjuvant treatment) by 0.37 ml were selected, and then randomized. A designated daily dose of a compound of this invention, which was suspended in 1% aqueous methylcellulose solution, was administered to the randomized rats with arthritis by oral gavage daily once beginning on day 14 after the injection of the adjuvant. The administration of the compound continued till day 22 after the injection of the adjuvant, and the paw volumes were measured on daily basis using a displacement plethysmometer.
% Inhibition of AA=(1−Δtreated/Δcontrol)×100
wherein Δtreated=[(paw volume at day 22)/(paw volume at day 14)−1] for a drug-administered rat, and Δcontrol=[(paw volume at day 22)/(paw volume at day 14)−1] for a rat without drug administration.
ED50 value was determined b a dose-response curve for each compound.

Usually melting point stands for the temperature of the solid-liquid transition. For the compound `CC1(C)OC(c2ccc(S(C)(=O)=O)cc2)=C(c2cccc(F)c2)C1=O` [Example 4, 2,2-Dimethyl-4-(3-fluorophenyl)-5-{4-(methylsulfonyl)phenyl}-3(2H)-furanone], the melting point lay within 178 to 179 °C. Besides, on COX-2, the “IC50, μg/ml COX-2” value came to 0.02 µg/mL (≈ 0.0555 µM). In data set [1], the “% Inhibition (CFE)” value was determined as 36%. Moreover, the “Adjuvant Arthritis ED50” value in the data set on male SD rats was 0.07 mg/kg body weight.
In turn, `CC1(C)OC(c2ccc(S(C)(=O)=O)cc2)=C(c2cc(F)cc(F)c2)C1=O` [Example 11, 4-(3,5-Difluorophenyl)-2,2-dimethyl-5-{4-(methylsulfonyl)phenyl}-3(2H)-furanone] came in with a melting point of 141 to 142 °C. At COX-2, the “IC50, μg/ml COX-2” value was 0.05 µg/mL (≈ 0.132 µM). Moreover, the “Adjuvant Arthritis ED50” value with male SD rats is on record as 0.03 mg/kg body weight.
`CC1(C)OC(c2ccc(S(N)(=O)=O)cc2)=C(c2cccc(Cl)c2)C1=O` [Example 126] gave a melting point of 194 to 195 °C. Further, the “IC50, μg/ml COX-2” value against COX-2 came out at 0.014 µg/mL (≈ 0.0371 µM). Further, in data set [1], the “% Inhibition (CFE)” value was found to be 39%. Further, in the data set with male SD rats, the “Adjuvant Arthritis ED50” value is given as 0.03 mg/kg body weight.
Turning to `CC1(C)OC(c2ccc(S(N)(=O)=O)cc2)=C(c2cccc(F)c2)C1=O` [Example 129, 5-{4-(aminosulfonyl)phenyl}-2,2-dimethyl-4-(3-fluorophenyl)-3(2H)-furanone], at COX-2, the “IC50, μg/ml COX-2” value came to 0.0067 µg/mL (≈ 0.0185 µM). Moreover, the “% Inhibition (CFE)” value in data set [1] is listed as 47%. Also, in the data set with male SD rats, the “Adjuvant Arthritis ED50” value was determined as 0.02 mg/kg body weight.
For the compound `CC1(C)OC(c2ccc(S(N)(=O)=O)cc2F)=C(c2ccc(F)cc2)C1=O` [Example 334], the melting point is 95 to 97 °C. Also, the “IC50, μg/ml COX-2” value against COX-2 worked out at 0.03 µg/mL (≈ 0.0791 µM). The “% Inhibition (CFE)” value in data set [1] turned out to be 37%. Moreover, in the data set with male SD rats, the “Adjuvant Arthritis ED50” value was 0.09 mg/kg body weight.
